Assay [1] has as its system MYC protein. In words: MYC protein level by immunoblot in K562 cells treated with JQ1. It counts as cell-based. The note with it: 1 uM JQ1 for 6 h. As for the experimental part: (§1) FIGS. 4A-4C show TRoUT-FISH identifies MYC and BRD4 as regulators of glycolysis. FIG. 4A) TRoUT-FISH data from ENO1 and PGK1 screens. B,C) K562 cells were treated with 1 uM JQ1 for 6 h. FIG. 4B) MYC protein level measured by immunoblot and FIG. 4C) transcripts measured by qPCR. **p<0.01, ****p<0.0001 T-test.
(§2) First, TRoUT-FISH experiments were performed assaying the regulation of ENO1 and PGK1 in K562 cells (FIG. 4A). […] MYC is a well-characterized activator of glycolytic gene expression, and as such served as an internal positive control. BRD4 is a member of the bromodomain and extraterminal domain (BET) family of proteins and is known to regulate MYC at the transcript level.
Background: A western blot detects proteins with antibodies after separation by electrophoresis.

Assay [2] relates to PGK1 transcript. In words: PGK1 transcript by qPCR in K562 cells treated with JQ1. Conditions: 1 uM JQ1 for 6 h. The format is cell-based. As for the experimental part:
as §1, §2
In general terms: Quantitative PCR measures a nucleic acid by following its amplification.

Assay [3] relates to ENO1 transcript. In words: ENO1 transcript by qPCR in K562 cells treated with JQ1. It counts as cell-based. The note with it: 1 uM JQ1 for 6 h. How it is done:
as §1, §2

The test system of assay [4] is MYC transcript. In words: MYC transcript by qPCR in K562 cells treated with JQ1. It counts as cell-based. Conditions: 1 uM JQ1 for 6 h. How it is done:
as §1, §2

Assay [5] deals with ERRFI1. The note with it: HCT116 cells treated with JQ1, reprocessed RNA-seq data; cited from earlier work.
In assay [6] the test system is CDKN1A transcript. In words: CDKN1A transcript after Nutlin-3a treatment of HCT116 cells. Conditions: HCT116 cells (wildtype for TP53). It counts as cell-based. The text has this:
(§3) FIGS. 3A-3D show TRoUT-FISH positively identifies known mechanisms of gene regulation. Treatment with Nutlin-3a FIG. 3A) stabilizes p53 protein and FIG. 3B) induces CDKN1A transcription. FIG. 3C) FISH and flow cytometry detects drug induced changes in CDKN1A mRNA levels. FIG. 3D) MAGeCK analysis of Nutlin-3a TRoUT-FISH with CDKN1A as the elucidator. ****p<0.0001 T-test.
(§4) The small molecule Nutlin-3a, which inhibits the interaction between MDM2 and p53 and, in doing so, prevents the proteolytic degradation of p53 and permits activation of downstream targets such as CDKN1A, has been used. […] These changes were then assayed using FISH coupled with flow cytometry (FIG. 2). […] A CRISPR screen was performed in HCT116 cells stably expressing Cas9 with a small library targeting ˜1500 transcription factors, including ten sgRNAs against TP53. After acute selection, cells were treated with vehicle or Nutlin-3a and the transcript abundance of CDKN1A was determined by FISH. CDKN1Alow and CDKN1A high populations were sorted by flow cytometry (e.g. FACS), isolated genomic DNA, and sequenced sgRNAs (FIG. 2). This screen positively identified TP53 as the critical mediator of Nutlin-3a induced CDKN1A expression ([…]).

Assay [7] relates to CDKN1A mRNA. In words: FISH coupled with flow cytometry for CDKN1A mRNA in HCT116 cells. It counts as cell-based. As for the experimental part: as §3
TRoUT-FISH is performed on bulk populations which sidesteps the cost and data sparsity issues common to single cell RNA-seq assays. As TRoUT-FISH experiments are performed without any genetic manipulations prior to CRISPR perturbations, the system is ideally positioned to integrate with other data, including ChIP-seq, ATAC-seq, and ENCODE resources. These other resources provide complementary mechanistic insight of gene regulation. Cells are infected at low MOI with virus encoding a CRISPR library selected based on antibiotic resistance. Cells are cultured for eight days to allow CRISPR editing to occur. […]
The small molecule Nutlin-3a, which inhibits the interaction between MDM2 and p53 and, in doing so, prevents the proteolytic degradation of p53 and permits activation of downstream targets such as CDKN1A, has been used. […] After acute selection, cells were treated with vehicle or Nutlin-3a and the transcript abundance of CDKN1A was determined by FISH. […]

Assay [8] deals with p53 protein. In words: p53 protein level after Nutlin-3a treatment of HCT116 cells. The format is cell-based. Conditions: HCT116 cells (wildtype for TP53).
From the text: as §3, §4

Assay [9] has as its system CDKN1A RNA. In words: MACAREL-FISH barcode recovery with CDKN1A as target RNA. The format is cell-based. The note with it: vehicle versus Nutlin-3a barcoded cells, FACS sorted. The text has this:
FIG. 11A-C show Method to Associate Compounds with Altered RNA levels via Fluorescent In Situ Hybridization (MACAREL-FISH). FIG. 11A) Schematic of MACAREL-FISH. FIG. 11B) Schematic of sorting strategy. Magenta boxes indicate the sorted population. Low and high populations were sorted from the Mix 50:50 population.
In brief, cells are arrayed in a 96 well plate (FIG. 11A). MACAREL-FISH is amenable to any cell type including: immortalized cancer cell lines, primary cells, patient cells, and organoids. Each well is incubated with a specific compound. Before, during, or after treatment cells are barcoded (FIG. 11A). Cells are then detached from the plate and fixed with paraformaldehyde (PFA) which locks cells in their current state. Cells are then pooled permeabilized and stained with a DNA dye and incubated overnight in hybridization buffer in the presence of specific DNA oligonucleotides that anneal to an RNA of interest. The DNA oligonucleotides are computationally designed genome-wide to ensure specificity for the elucidator. […] Based on the possible sequence space of barcodes and read length on NGS, this approach can be scaled almost ad infinitum.
Cells were treated with either vehicle control or the small molecule Nutlin-3a. […] After sorting, DNA was extracted and barcodes identity and abundance were measured by sequencing.

Consider two compounds from patent US20260092315A1, “COMPOSITIONS AND METHODS FOR DISCOVERING GENE REGULATION” (UNIVERSITY OF UTAH RESEARCH FOUNDATION, priority 2022, published 2026).

As to `Cc1sc2c(c1C)C(c1ccc(Cl)cc1)=N[C@@H](CC(=O)OC(C)(C)C)c1nnc(C)n1-2` [JQ1], the MYC protein level result in assay [1] is “significantly downregulated”. The PGK1 transcript level result in assay [2] is listed as “significantly downregulated”. The ENO1 transcript level result in assay [3] is listed as “significantly downregulated”. Further, the MYC transcript level entry in [4] was “significantly downregulated”. Moreover, the ERRFI1 levels entry in assay [5] is “reduction in ERRFI1 levels”.

On to `COc1ccc(C2=N[C@@H](c3ccc(Cl)cc3)[C@@H](c3ccc(Cl)cc3)N2C(=O)N2CCNC(=O)C2)c(OC(C)C)c1` [Nutlin-3a], for which the CDKN1A transcript level entry in assay [6] was “induction of CDKN1A transcript”. Also, in [7] (HCT116 cells, versus control and inactive enantiomer), the “CDKN1A FISH fluorescence by flow cytometry” value is “higher fluorescence than either the control or inactive enantiomer”. Besides, in assay [7] (stable TP53 knockout lines), the “CDKN1A FISH signal upon treatment” value is “no induction of CDKN1A signal”. Besides, the p53 protein level result in assay [8] was “stabilization of p53 protein”. Also, in [9], the “Effect on CDKN1A RNA abundance (barcode recovery from sorted populations)” value is “activator of CDKN1A RNA abundance”.
